SMILES strings stand for the structures. Where a name gives a salt, the structure may show the parent alone. Where only a bound is given, the exact number is not on record here.

25 compounds from patent publication US10280169B2, “Biaryl bruton's tyrosine kinase inhibitors” (BIOGEN MA INC., priority 2013, dated 2019) can be followed below.

The target in the experiment is T1, BTK (Homo sapiens, UniProt Q06187).
T1 construct: purchased Upstate 14-552
T1 sequence (Q06187 whole entry): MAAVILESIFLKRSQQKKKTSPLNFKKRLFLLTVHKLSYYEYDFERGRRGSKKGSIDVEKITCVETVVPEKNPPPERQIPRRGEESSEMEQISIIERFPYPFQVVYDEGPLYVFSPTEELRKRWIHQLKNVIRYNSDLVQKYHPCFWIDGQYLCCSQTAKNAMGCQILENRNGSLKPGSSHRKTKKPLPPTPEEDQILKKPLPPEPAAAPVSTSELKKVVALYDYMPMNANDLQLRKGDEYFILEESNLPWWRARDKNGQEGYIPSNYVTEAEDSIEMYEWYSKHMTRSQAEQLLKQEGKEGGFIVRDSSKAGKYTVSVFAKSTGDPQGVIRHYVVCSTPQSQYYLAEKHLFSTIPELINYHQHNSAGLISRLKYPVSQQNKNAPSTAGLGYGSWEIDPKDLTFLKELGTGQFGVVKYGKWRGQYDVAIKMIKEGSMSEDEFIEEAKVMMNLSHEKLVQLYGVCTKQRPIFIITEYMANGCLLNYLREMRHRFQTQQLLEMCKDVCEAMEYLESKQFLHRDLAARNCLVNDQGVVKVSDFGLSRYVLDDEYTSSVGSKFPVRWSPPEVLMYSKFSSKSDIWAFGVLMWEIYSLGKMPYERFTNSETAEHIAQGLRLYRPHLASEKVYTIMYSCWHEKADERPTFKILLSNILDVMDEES
Nature of the experiment: In vitro BTK kinase assay: BTK-POLYGAT-LS assay. The note with it: 10 uM ATP, read-out: IC50 (10 uMATP). The class given is biochemical.
For orientation: IC50 means the midpoint of a concentration-inhibition curve. With `O=C(NCc1ccc(-c2ncnc3[nH]ccc23)cc1)c1nc2c(s1)CCCC2` [Example I-62, N-(4-(7H-pyrrolo[2,3-d]pyrimidin-4-yl)benzyl)-4,5,6,7-tetrahydrobenzo[d]thiazole-2-carboxamide], the IC50 fell in the range of 10 to 99 nM. `O=C(NCc1ccc(-c2ncnc3[nH]ccc23)cc1)c1cc(C(F)(F)F)c(Cl)cn1` [Example I-63, N-(4-(7H-pyrrolo[2,3-d]pyrimidin-4-yl)benzyl)-5-chloro-4-(trifluoromethyl)picolinamide]: the IC50 lay within 1000 to 10000 nM.

Consider `O=C(NCc1ccc(-c2ncnc3[nH]ccc23)cc1)c1cn2c(n1)CCCC2` [Example I-64, N-(4-(7H-pyrrolo[2,3-d]pyrimidin-4-yl)benzyl)-5,6,7,8-tetrahydroimidazo[1,2-a]pyridine-2-carboxamide], for which the IC50 was over 10000 nM.

Turning to `O=C(NCc1ccc(-c2ncnc3[nH]ccc23)cc1)c1cc2c(s1)CCCC2` [Example I-65, N-(4-(7H-pyrrolo[2,3-d]pyrimidin-4-yl)benzyl)-4,5,6,7-tetrahydrobenzo[b]thiophene-2-carboxamide], the IC50 lay in the range of 10 to 99 nM. `O=C(NCc1ccc(-c2ncnc3[nH]ccc23)cc1)c1ccc(C(F)(F)F)cc1` [Example I-66, N-(4-(7H-pyrrolo[2,3-d]pyrimidin-4-yl)benzyl)-4-(trifluoromethyl)benzamide]: the IC50 is 100 to 999 nM. To `CC(C)(C)c1ccc(C(=O)NCc2ccc(-c3ncnc4[nH]ccc34)cc2)cn1` [Example I-67, N-(4-(7H-pyrrolo[2,3-d]pyrimidin-4-yl)benzyl)-6-(tert-butyl)nicotinamide] belongs 100 to 999 nM; to `CC(C)(C)c1ccc(C(=O)NCc2ccc(-c3ncnc4[nH]ccc34)cc2)nc1` [Example I-68, N-(4-(7H-pyrrolo[2,3-d]pyrimidin-4-yl)benzyl)-5-(tert-butyl)picolinamide], 100 to 999 nM; to `O=C(NCc1ccc(-c2ncnc3[nH]ccc23)cc1)N1Cc2ccccc2C1` [Example I-69, N-(4-(7H-pyrrolo[2,3-d]pyrimidin-4-yl)benzyl)isoindoline-2-carboxamide], 10 to 99 nM. To `CC(C)(C)c1ccc(C(=O)NCc2ccc(-c3ncnc4[nH]ccc34)cn2)nc1` [Example I-70] belongs 100 to 999 nM; to `O=C(NCc1ccc(-c2ncnc3[nH]ccc23)cn1)c1cc2c(s1)CCCC2` [Example I-71, N-((5-(7H-pyrrolo[2,3-d]pyrimidin-4-yl)pyridin-2-yl)methyl)-4,5,6,7-tetrahydrobenzo[b]thiophene-2-carboxamide], 10 to 99 nM. As for `CC(C)(C)c1ccc(C(=O)NCc2ccc(-c3ccnc4[nH]ccc34)nc2)nc1` [Example I-72, N-((6-(1H-pyrrolo[2,3-b]pyridin-4-yl)pyridin-3-yl)methyl)-5-(tert-butyl)picolinamide], the IC50 lay within 100 to 999 nM. To `O=C(NCc1ccc(-c2ccnc3[nH]ccc23)nc1)c1cc2c(s1)CCCC2` [Example I-73, N-((6-(1H-pyrrolo[2,3-b]pyridin-4-yl)pyridin-3-yl)methyl)-4,5,6,7-tetrahydrobenzo[b]thiophene-2-carboxamide] belongs 10 to 99 nM; to `C[C@@H](NC(=O)c1nc2c(s1)CCCC2)c1ccc(-c2ncnc3[nH]ccc23)cc1` [Example I-74, (R)—N-(1-(4-(7H-pyrrolo[2,3-d]pyrimidin-4-yl)phenyl)ethyl)-4,5,6,7-tetrahydrobenzo[d]thiazole-2-carboxamide], 100 to 999 nM. `C[C@H](NC(=O)c1nc2c(s1)CCCC2)c1ccc(-c2ncnc3[nH]ccc23)cc1` [Example I-75, (S)—N-(1-(4-(7H-pyrrolo[2,3-d]pyrimidin-4-yl)phenyl)ethyl)-4,5,6,7-tetrahydrobenzo[d]thiazole-2-carboxamide]: the IC50 lay in the range of 1000 to 10000 nM.

On to `Cc1cc(-c2ncnc3[nH]c(-c4cnn5c4CNCC5)cc23)ccc1CNC(=O)c1cnc(C(C)(C)C)s1` [Example I-76, 2-(tert-butyl)-N-(2-methyl-4-(6-(4,5,6,7-tetrahydropyrazolo[1,5-a]pyrazin-3-yl)-7H-pyrrolo[2,3-d]pyrimidin-4-yl)benzyl)thiazole-5-carboxamide hydrochloride], for which the IC50 is under 10 nM. The figure for `Cc1cc(-c2ncnc3[nH]ccc23)ccc1C(C)NC(=O)c1nc2c(s1)CCCC2` (stereo not shown) [Example I-77, N-(1-(2-methyl-4-(7H-pyrrolo[2,3-d]pyrimidin-4-yl)phenyl)ethyl)-4,5,6,7-tetrahydrobenzo[d]thiazole-2-carboxamide] is under 10 nM; for `CC(NC(=O)c1nc2c(s1)CCCC2)c1ccc(-c2ncnc3[nH]ccc23)cc1C(F)(F)F` (stereo not shown) [Example I-79, N-(1-(4-(7H-pyrrolo[2,3-d]pyrimidin-4-yl)-2-(trifluoromethyl)phenyl)ethyl)-4,5,6,7-tetrahydrobenzo[d]thiazole-2-carboxamide] it is 10 to 99 nM. To `CC(NC(=O)c1cc2c(s1)CCCC2)c1ccc(-c2ncnc3[nH]ccc23)cc1C(F)(F)F` (stereo not shown) [Example I-80, N-(1-(4-(7H-pyrrolo[2,3-d]pyrimidin-4-yl)-2-(trifluoromethyl)phenyl)ethyl)-4,5,6,7-tetrahydrobenzo[b]thiophene-2-carboxamide] belongs 10 to 99 nM. The figure for `O=C(N[C@@H]1CCCc2cc(-c3ncnc4[nH]ccc34)ccc21)c1cc2c(s1)CCCC2` [Example I-81, (R)—N-(6-(7H-Pyrrolo[2,3-d]pyrimidin-4-yl)-1,2,3,4-tetrahydronaphthalen-1-yl)-4,5,6,7-tetrahydrobenzo[b]thiophene-2-carboxamide] is 100 to 999 nM; for `CC(C)(C)c1ccc(C(=O)NC2COCc3cc(-c4ncnc5[nH]ccc45)ccc32)nc1` (stereo not shown) [Example I-82, N-(7-(7H-pyrrolo[2,3-d]pyrimidin-4-yl)isochroman-4-yl)-5-(tert-butyl)picolinamide] it is 100 to 999 nM. Consider `CC(C)(C)c1ccc(C(=O)NC2COCc3cc(-c4ncnc5[nH]ccc45)ccc32)cc1` (stereo not shown) [Example I-83, N-(7-(7H-pyrrolo[2,3-d]pyrimidin-4-yl)isochroman-4-yl)-4-(tert-butyl)benzamide], for which the IC50 was 1000 to 10000 nM. To `CC(C)(C)c1ccc(C(=O)NCc2ccc(-c3ncnc4[nH]ncc34)cc2)cc1` [Example I-84, N-(4-(1H-pyrazolo[3,4-d]pyrimidin-4-yl)benzyl)-4-(tert-butyl)benzamide] belongs 100 to 999 nM; to `O=C(N[C@@H]1CCCc2cc(-c3ncnc4[nH]ncc34)ccc21)c1cc2c(s1)CCCC2` [Example I-86, (R)—N-(6-(1H-Pyrazolo[3,4-d]pyrimidin-4-yl)-1,2,3,4-tetrahydronaphthalen-1-yl)-4,5,6,7-tetrahydrobenzo[b]thiophene-2-carboxamide], 10 to 99 nM. The figure for `CC(C)(C)c1ccc(C(=O)NC2CCCc3cc(-c4ncnc5[nH]ncc45)ccc32)cc1` (stereo not shown) [Example I-88, N-(6-(1H-pyrazolo[3,4-d]pyrimidin-4-yl)-1,2,3,4-tetrahydronaphthalen-1-yl)-4-(tert-butyl)benzamide] is 10 to 99 nM. The figure for `O=C(NC1CCCc2cc(-c3ncnc4[nH]ncc34)ccc21)c1ccc(Cl)c(F)c1` (stereo not shown) [Example I-90, N-(6-(1H-pyrazolo[3,4-d]pyrimidin-4-yl)-1,2,3,4-tetrahydronaphthalen-1-yl)-4-chloro-3-fluorobenzamide] is 100 to 999 nM.
